Results as given in PubChem BioAssay AID248 (DTP/NCI, 2004).
Several values for one entry are separate records, joined by “and”; a condition that tells them apart may be missing. Equal entries are not always repeated. Inconclusive results and toxic doses are left out. Cut-off read from the data, not from the text of the source: active = T/C of 150% or more; inactive = T/C below 125%.

Test system: L1210 leukemia ip in BDF1 mice, survival T/C
Assay: NCI In Vivo Anticancer Drug Screen. Data for tumor model L1210 Leukemia (intraperitoneal) in B6D2F1 (BDF1) mice
Settings: endpoint: mean survival time, higher = longer survival
In short: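 Transplantable tumor model; survival measured in treated vs vehicle control mice. Value = treated/control.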

[1] = dose: 100.0 mg/kg/injection, schedule: Q04DX003 (ip), vehicle: Klucel (hydroxypropylcellulose) (HPC)
[2] = dose: 200.0 mg/kg/injection, schedule: Q04DX003 (ip), vehicle: Klucel (hydroxypropylcellulose) (HPC)
[3] = dose: 400.0 mg/kg/injection, schedule: Q04DX003 (ip), vehicle: Klucel (hydroxypropylcellulose) (HPC)
[4] = dose: 100.0 mg/kg/injection, schedule: Q01DX001 (ip), vehicle: saline
[5] = dose: 200.0 mg/kg/injection, schedule: Q01DX001 (ip), vehicle: saline
[6] = dose: 100.0 mg/kg/injection, schedule: Q04DX003 (ip), vehicle: saline
[7] = dose: 200.0 mg/kg/injection, schedule: Q04DX003 (ip), vehicle: saline
[8] = dose: 400.0 mg/kg/injection, schedule: Q04DX003 (ip), vehicle: saline
[9] = dose: 100.0 mg/kg/injection, schedule: Q04DX003 (ip), vehicle: saline with Tween-80
[10] = dose: 200.0 mg/kg/injection, schedule: Q04DX003 (ip), vehicle: saline with Tween-80
[11] = dose: 400.0 mg/kg/injection, schedule: Q04DX003 (ip), vehicle: saline with Tween-80
[12] = dose: 100.0 mg/kg/injection, schedule: Q01DX009 (ip), vehicle: Klucel (hydroxypropylcellulose) (HPC)
[13] = dose: 200.0 mg/kg/injection, schedule: Q01DX009 (ip), vehicle: Klucel (hydroxypropylcellulose) (HPC)
[14] = dose: 100.0 mg/kg/injection, schedule: Q01DX001 (ip), vehicle: Klucel (hydroxypropylcellulose) (HPC)
[15] = dose: 100.0 mg/kg/injection, schedule: Q04DX002 (ip), vehicle: Klucel (hydroxypropylcellulose) (HPC)
[16] = dose: 200.0 mg/kg/injection, schedule: Q04DX002 (ip), vehicle: Klucel (hydroxypropylcellulose) (HPC)
[17] = dose: 400.0 mg/kg/injection, schedule: Q01DX009 (ip), vehicle: Klucel (hydroxypropylcellulose) (HPC)
[18] = dose: 400.0 mg/kg/injection, schedule: Q04DX002 (ip), vehicle: Klucel (hydroxypropylcellulose) (HPC)

Measured: T/C

Clc1ccccc1C(CI)c1ccccc1Cl
inactive: dose: 5.0 mg/kg/injection, schedule: Q01DX001 (ip), vehicle: other 98 % of control | dose: 10.0 mg/kg/injection, schedule: Q01DX001 (ip), vehicle: other 98 % of control | dose: 20.0 mg/kg/injection, schedule: Q01DX001 (ip), vehicle: other 98 % of control | dose: 40.0 mg/kg/injection, schedule: Q01DX001 (ip), vehicle: other 100 % of control | dose: 80.0 mg/kg/injection, schedule: Q01DX001 (ip), vehicle: other 100 % of control

Cc1cc(=O)n(-c2ccc(N)cc2)n1C
inactive: [1] 100 % of control | [2] 100 % of control | [3] 101 % of control

CC(=O)Nc1c(Cl)c(Cl)c2c(c1Cl)C(=O)c1cc(Cl)ccc1-2
inactive: dose: 100.0 mg/kg/injection, schedule: Q01DX001 (ip), vehicle: carboxymethylcellulose (CMC) 92 % of control | dose: 100.0 mg/kg/injection, schedule: Q01DX Z (ip), vehicle: carboxymethylcellulose (CMC) 102 % of control | dose: 200.0 mg/kg/injection, schedule: Q01DX001 (ip), vehicle: carboxymethylcellulose (CMC) 90 % of control | dose: 200.0 mg/kg/injection, schedule: Q01DX Z (ip), vehicle: carboxymethylcellulose (CMC) 98 % of control | dose: 400.0 mg/kg/injection, schedule: Q01DX001 (ip), vehicle: carboxymethylcellulose (CMC) 95 % of control | dose: 400.0 mg/kg/injection, schedule: Q01DX Z (ip), vehicle: carboxymethylcellulose (CMC) 98 % of control | dose: 800.0 mg/kg/injection, schedule: Q01DX Z (ip), vehicle: carboxymethylcellulose (CMC) 102 % of control

C#CCON(C(=O)Nc1ccc(Cl)cc1)C(=O)c1ccc(OC)cc1
inactive: [1] 88 % of control | [2] 86 % of control | [3] 93 % of control

O=C(Nc1ccc([N+](=O)[O-])cc1)N1CCCCC1
inactive: [4] 95 % of control | [5] 95 % of control | dose: 400.0 mg/kg/injection, schedule: Q01DX001 (ip), vehicle: saline 97 % of control

Cc1nc[nH]c(=O)c1CCC1OCCO1
inactive: [6] 93 % of control | [7] 98 % of control | [8] 98 % of control

Cc1noc2c1CCCC2
inactive: dose: 100.0 mg/kg/injection, schedule: Q04DX003 (ip), vehicle: carboxymethylcellulose (CMC) 103 % of control | dose: 200.0 mg/kg/injection, schedule: Q04DX003 (ip), vehicle: carboxymethylcellulose (CMC) 106 % of control

CCCCCCC[CH2][Sn]([CH2]CCCCCCC)([NH]S(=O)(=O)c1ccc(C)cc1)[NH]S(=O)(=O)c1ccc(C)cc1
inactive: dose: 18.75 mg/kg/injection, schedule: Q01DX009 (ip), vehicle: saline sonified 102 % of control | dose: 37.5 mg/kg/injection, schedule: Q01DX009 (ip), vehicle: saline sonified 86 % of control | dose: 75.0 mg/kg/injection, schedule: Q04DX003 (ip), vehicle: Klucel (hydroxypropylcellulose) (HPC) 107 % of control

CC(C)=C(CSC#N)S(=O)(=O)c1ccc(C)cc1
inactive: dose: 3.12 mg/kg/injection, schedule: Q01DX009 (ip), vehicle: Klucel (hydroxypropylcellulose) (HPC) 103 % of control | dose: 6.25 mg/kg/injection, schedule: Q01DX009 (ip), vehicle: Klucel (hydroxypropylcellulose) (HPC) 101 % of control | dose: 12.5 mg/kg/injection, schedule: Q01DX009 (ip), vehicle: Klucel (hydroxypropylcellulose) (HPC) 97 % of control

Cc1c(O)ccc(O)c1C
inactive: [4] 100 % of control | [5] 95 % of control

C/C=C/CC1(CCC(C)C)C(=O)NC(=O)NC1=O
inactive: dose: 75.0 mg/kg/injection, schedule: Q01DX001 (ip), vehicle: acetone 95 % of control | dose: 75.0 mg/kg/injection, schedule: Q01DX001 (ip), vehicle: other 101 % of control | dose: 150.0 mg/kg/injection, schedule: Q01DX001 (ip), vehicle: acetone 101 % of control | dose: 150.0 mg/kg/injection, schedule: Q01DX001 (ip), vehicle: other 101 % of control | dose: 300.0 mg/kg/injection, schedule: Q01DX001 (ip), vehicle: other 105 % of control

CCN(CCCl)CCNc1c2ccccc2nc2c1ccc1ccccc12
inactive: dose: 1.25 mg/kg/injection, schedule: Q01DX005 (ip), vehicle: saline 116 % of control | dose: 2.5 mg/kg/injection, schedule: Q01DX005 (ip), vehicle: saline 115 % of control | dose: 5.0 mg/kg/injection, schedule: Q01DX005 (ip), vehicle: saline 107 % of control

Cc1ccccc1NC(=O)NCCCl
inactive: [9] 88 % of control | [10] 88 % of control | [11] 98 % of control

CCOC(=O)c1cnc(=S)[nH]c1N
inactive: dose: 50.0 mg/kg/injection, schedule: Q01DX009 (ip), vehicle: Klucel (hydroxypropylcellulose) (HPC) 102 % of control | dose: 50.0 mg/kg/injection, schedule: Q04DX003 (ip), vehicle: Klucel (hydroxypropylcellulose) (HPC) 95 % of control | [12] 96 % of control | [1] 95 % of control | [13] 93 % of control | [2] 97 % of control

Cc1ccc(S(=O)(=O)N(C)c2ccc(CC(=O)O)cc2)cc1
inactive: [1] 97 % of control | [2] 95 % of control | [3] 95 % of control

Cc1cc(C)nc(NC(=O)Nc2cccc(C(F)(F)F)c2)c1
inactive: [14] 102 % of control | [12] 104 % of control and 113 % of control | [15] 101 % of control and 117 % of control | [1] 94 % of control | dose: 200.0 mg/kg/injection, schedule: Q01DX001 (ip), vehicle: Klucel (hydroxypropylcellulose) (HPC) 94 % of control | [13] 93 % of control and 109 % of control | [16] 96 % of control and 98 % of control | [2] 111 % of control | dose: 400.0 mg/kg/injection, schedule: Q01DX001 (ip), vehicle: Klucel (hydroxypropylcellulose) (HPC) 98 % of control | [17] 104 % of control and 107 % of control | [18] 98 % of control and 99 % of control | [3] 99 % of control

CCOC(CNC(=O)CC(C)=O)OCC
inactive: dose: 100.0 mg/kg/injection, schedule: Q01DX009 (ip), vehicle: saline 96 % of control | [6] 104 % of control | dose: 200.0 mg/kg/injection, schedule: Q01DX009 (ip), vehicle: saline 104 % of control | [7] 108 % of control | dose: 400.0 mg/kg/injection, schedule: Q01DX009 (ip), vehicle: saline 98 % of control | [8] 103 % of control

N#CCCOc1ccc(Cl)cc1
inactive: [9] 96 % of control | [10] 99 % of control

CNN1CCOC1=O
inactive: dose: 100.0 mg/kg/injection, schedule: Q04DX002 (ip), vehicle: saline 100 % of control | dose: 200.0 mg/kg/injection, schedule: Q04DX002 (ip), vehicle: saline 100 % of control | dose: 400.0 mg/kg/injection, schedule: Q04DX002 (ip), vehicle: saline 104 % of control

CCOC(=O)c1ccc(NC(=O)Nc2cc(OC)c(Cl)cc2OC)cc1
inactive: dose: 100.0 mg/kg/injection, schedule: Q01DX001 (ip), vehicle: saline with Tween-80 93 % of control | dose: 100.0 mg/kg/injection, schedule: Q04DX002 (ip), vehicle: saline with Tween-80 97 % of control | dose: 200.0 mg/kg/injection, schedule: Q01DX001 (ip), vehicle: saline with Tween-80 101 % of control | dose: 200.0 mg/kg/injection, schedule: Q04DX002 (ip), vehicle: saline with Tween-80 100 % of control | dose: 400.0 mg/kg/injection, schedule: Q01DX001 (ip), vehicle: saline with Tween-80 88 % of control | dose: 400.0 mg/kg/injection, schedule: Q04DX002 (ip), vehicle: saline with Tween-80 97 % of control

CCN(C(=O)c1ccc(C(=O)N(CC)c2cccc(C)c2)cc1)c1cccc(C)c1
inactive: [12] 94 % of control | [13] 89 % of control | [17] 91 % of control

CC(=O)Nc1ccc(N)cc1N
inactive: dose: 50.0 mg/kg/injection, schedule: Q04DX003 (ip), vehicle: saline 98 % of control | [9] 102 % of control | [6] 92 % of control and 89 % of control | [10] 115 % of control | [7] 98 % of control | [11] 100 % of control | [8] 89 % of control

Cc1cc(NC(=O)Nc2cc([N+](=O)[O-])ccc2Cl)no1
inactive: [14] 89 % of control | [12] 96 % of control and 98 % of control | [15] 104 % of control and 91 % of control | [1] 96 % of control | [13] 106 % of control and 90 % of control | [16] 95 % of control and 98 % of control | [2] 97 % of control | [17] 98 % of control | [18] 95 % of control and 106 % of control | [3] 97 % of control
